US12606548B2, “Fungicidal oxadiazoles” (FMC CORPORATION, priority 2019, dated 2026)
Marks after values point to notes of the source that are not given here.

Columns and labels:
Format in all cases: in vivo
Zymoseptoria tritici = test: Test B: test suspension sprayed on wheat seedlings, inoculated next day with Zymoseptoria tritici (wheat leaf blotch), visual disease rating; conditions: for Test B rating (% disease control): relative to the controls
Source text: General protocol for preparing test suspensions for Tests A-C: the test compounds were first dissolved in acetone in an amount equal to 3% of the final volume and then suspended at the desired concentration (in ppm) in acetone and purified water (50/50 mix by volume) containing 250 ppm of the surfactant PEG400 (polyhydric alcohol esters). The resulting test suspensions were then used in Tests A-C.
The test suspension was sprayed to the point of run-off on wheat seedlings. The following day the seedlings were inoculated with a spore suspension of Zymoseptoria tritici (the causal agent of wheat leaf blotch) and incubated in a saturated atmosphere at 24° C., for 48 h, and then moved to a growth chamber at 20° C., for 17 days, after which time visual disease ratings were made.
Results for Tests A-C are given in Table A. In the Table, a rating of 100 indicates 100% disease control and a rating of 0 indicates no disease control (relative to the controls). A dash (-) indicates the compound was not tested. The test suspensions were sprayed at the concentration listed in the column “Rate in ppm”, unless otherwise indicated. An asterisk “*” next to the rating indicates a 250 ppm test suspension was used, a double asterisk “**” next to the rating indicates a 100 ppm test suspension was used, and a triple asterisk “***” next to the rating indicates a 50 ppm test suspension was used.

Phakopsora pachyrhizi = test: Test A: test suspension sprayed on soybean seedlings, inoculated next day with Phakopsora pachyrhizi (Asian soybean rust), visual disease rating; conditions: for Test A rating (% disease control): relative to the controls
Procedure, shortened: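 Compounds first dissolved in acetone (3% of final volume), then suspended in acetone/water 50/50 with 250 ppm PEG400 and sprayed to run-off on soybean seedlings at the stated ppm rate. Inoculated next day with P. pachyrhizi spores; 24 h saturated atmosphere at 22 °C, then 8 days in growth chamber at 22 °C before visual disease rating.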

[1] = tested on: Puccinia recondita f. sp. tritici; test: Test C: test suspension sprayed on wheat seedlings, inoculated next day with Puccinia recondita f. sp. tritici (wheat leaf rust), visual disease rating; conditions: for Test C rating (% disease control): relative to the controls
Procedure, shortened: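 Wheat seedlings received a run-off spray of test suspension (ppm rate as listed; acetone/water 50/50, 250 ppm PEG400 surfactant). Leaf rust spore inoculation followed one day later, then 24 h at 20° C in saturated air and 6 days at 20° C before disease was scored visually.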

| Compound | Test B rating (% disease control) (Zymoseptoria tritici; 250 ppm test suspension) | Test A rating (% disease control) (Phakopsora pachyrhizi; Rate 10 ppm test suspension) [%] | Test C rating (% disease control) ([1]; Rate 10 ppm test suspension) [%] | other results |
| --- | --- | --- | --- | --- |
| COC(=O)c1cnc(Oc2ccc(-c3noc(C(F)(F)F)n3)cc2)s1 [compound 452] | 59* % | 81 | 0 |  |
| CCOC(=O)c1ccc(Cc2ccc(-c3noc(C(F)(F)F)n3)cc2)cc1 [compound 453] | 50* % | 92 | 0 |  |
| COC(=O)c1coc(Cc2ccc(-c3noc(C(F)(F)F)n3)cc2)c1 [compound 456] | 65* % | 100 | 68 |  |
| CCOC(=O)c1cnn(CN2CCC(c3noc(C(F)(F)F)n3)CC2)c1 [compound 458] | 0* % |  |  | Test A rating (% disease control) (Phakopsora pachyrhizi; Rate 50 ppm test suspension): 0%; Test C rating (% disease control) ([1]; Rate 50 ppm test suspension): 0% |
| CCOC(=O)c1cnn(CCN2CCC(c3noc(C(F)(F)F)n3)CC2)c1 [compound 459] | 0* % |  |  | Test A rating (% disease control) (Phakopsora pachyrhizi; Rate 50 ppm test suspension): 0%; Test C rating (% disease control) ([1]; Rate 50 ppm test suspension): 0% |
| O=C(NCC(F)(F)F)c1csc(Cc2ccc(-c3noc(C(F)(F)F)n3)cc2)n1 [compound 463] | 65* % | 100 | 100 |  |
| COCCNC(=O)c1coc(COc2ccc(-c3noc(C(F)(F)F)n3)cc2)n1 [compound 464] | 94* % | 79 | 23 |  |
| O=C(NCC(F)(F)F)c1coc(COc2ccc(-c3noc(C(F)(F)F)n3)cc2)n1 [compound 465] | 0* % | 100 | 80 |  |
| O=C(NCCn1cccn1)c1coc(COc2ccc(-c3noc(C(F)(F)F)n3)cc2)n1 [compound 466] | 3* % | 100 | 55 |  |
| O=C(NCCC(F)(F)F)c1coc(COc2ccc(-c3noc(C(F)(F)F)n3)cc2)n1 [compound 467] | 6* % | 97 | 68 |  |
| N#CCNC(=O)c1coc(COc2ccc(-c3noc(C(F)(F)F)n3)cc2)n1 [compound 468] | 22* % | 84 | 0 |  |
| COCCNC(=O)c1csc(COc2ccc(-c3noc(C(F)(F)F)n3)cc2)n1 [compound 469] | 65* % | 96 | 86 |  |
| O=C(NCC(F)(F)F)c1csc(COc2ccc(-c3noc(C(F)(F)F)n3)cc2)n1 [compound 470] | 0* % | 100 | 94 |  |
| O=C(NCCn1cccn1)c1csc(COc2ccc(-c3noc(C(F)(F)F)n3)cc2)n1 [compound 471] | 15* % | 77 | 80 |  |
| O=C(NCCC(F)(F)F)c1csc(COc2ccc(-c3noc(C(F)(F)F)n3)cc2)n1 [compound 472] | 22* % | 77 | 0 |  |
| N#CCNC(=O)c1csc(COc2ccc(-c3noc(C(F)(F)F)n3)cc2)n1 [compound 473] | 28* % | 94 | 89 |  |
| O=C(c1csc(Cc2ccc(-c3noc(C(F)(F)F)n3)cc2)n1)N1CCOCC1 [compound 487] |  | 100 | 100 | Test B rating (% disease control) (Zymoseptoria tritici; 100 ppm test suspension (double asterisk)): 98** % |
| CCNC(=O)c1csc(Cc2ccc(-c3noc(C(F)(F)F)n3)cc2)n1 [compound 488] | 99* % | 100 | 100 |  |
| COCC(COC)NC(=O)c1csc(Cc2ccc(-c3noc(C(F)(F)F)n3)cc2)n1 [compound 489] | 92* % | 100 | 99 |  |
| CON=C(CCl)COC(=O)c1cnn(Cc2ccc(-c3noc(C(F)(F)F)n3)cc2)c1 [compound 494] | 47* % | 100 | 0 |  |
| O=C(CCl)COC(=O)c1cnn(Cc2ccc(-c3noc(C(F)(F)F)n3)cc2)c1 [compound 495] | 43* % | 100 | 0 |  |
| CC1(C)OCC(COC(=O)c2cnn(Cc3ccc(-c4noc(C(F)(F)F)n4)cc3)c2)O1 (stereo not drawn) [compound 496] | 48* % | 100 | 0 |  |
| CN(C)C(=O)C1=NOC(COc2cccc(-c3noc(C(F)(F)F)n3)c2)C1 (stereo not drawn) [compound 502] | 62% |  |  | Test A rating (% disease control) (Phakopsora pachyrhizi; Rate 250 ppm test suspension): 100%; Test C rating (% disease control) ([1]; Rate 250 ppm test suspension): 100% |
| ethyl 1-[[4-[5-(trifluoromethyl)-1,2,4-oxadiazol-3-yl]phenyl]methyl]-1H-pyrazole-4-carboxylate [Compound 83] |  |  |  | Test B disease control rating (Zymoseptoria tritici; 270 ppm test suspension): 5%; Test A disease control rating (Phakopsora pachyrhizi; 270 ppm test suspension): 100%; Test C disease control rating ([1]; 270 ppm test suspension): 100% |
| methyl 1,2-dihydro-2-oxo-1-[[4-[5-(trifluoromethyl)-1,2,4-oxadiazol-3-yl]phenyl]methyl]-4-pyridinecarboxylate [Compound 24] |  |  |  | Test B disease control rating (Zymoseptoria tritici; 270 ppm test suspension): 18%; Test A disease control rating (Phakopsora pachyrhizi; 270 ppm test suspension): 100%; Test C disease control rating ([1]; 270 ppm test suspension): 100% |
| methyl 2-[[4-[5-(trifluoromethyl)-1,2,4-oxadiazol-3-yl]-phenoxy]methyl]oxazole-4-carboxylate [Compound 403] |  |  |  | Test B disease control rating (Zymoseptoria tritici; 250 ppm test suspension): 93%; Test A disease control rating (Phakopsora pachyrhizi; 250 ppm test suspension): 100%; Test C disease control rating ([1]; 250 ppm test suspension): 100% |
| methyl 4,5-dihydro-2-[[4-[5-(trifluoromethyl)-1,2,4-oxadiazol-3-yl]phenyl]methyl]-4-oxazolecarboxylate [Compound 74] |  |  |  | Test B disease control rating (Zymoseptoria tritici; 250 ppm test suspension): 0%; Test A disease control rating (Phakopsora pachyrhizi; 250 ppm test suspension): 100%; Test C disease control rating ([1]; 250 ppm test suspension): 96% |
| α-(phenylamino)-4-[5-(trifluoromethyl)-1,2,4-oxadiazol-3-yl]benzeneacetonitrile [Compound 13] |  |  |  | Test B disease control rating (Zymoseptoria tritici; 250 ppm test suspension): 86%; Test A disease control rating (Phakopsora pachyrhizi; 250 ppm test suspension): 100%; Test C disease control rating ([1]; 250 ppm test suspension): 100% |
